Experimental findings from ChEMBL document CHEMBL1201862, “PubChem BioAssay data set” (2004) are described below.

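Values below derive from 48-hour exposures of cells grown in 96-well plates, with endpoints linearly interpolated between the two concentrations bracketing the appropriate inhibition level. At the GI50, growth is halved.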 The source made the active and inactive calls. No stated cut-off is given here; in the data, active = GI50 up to about 1.1 µM and inactive = higher.

Some test systems named below: OVCAR-8; HCT-116; MOLT-4; A549; OVCAR-4; NCI-H460; RXF 393; OVCAR-5; UACC-62; NCI-H226; HT-29; NCI-H522; SF-268; SK-MEL-28; SN12C; EKVX; SK-MEL-5; HOP-92; CCRF-CEM; KM12.
Holding throughout (experiment): growth of human tumour cells (NCI), 48 h

Take `BrC(Br)([P+](c1ccccc1)(c1ccccc1)c1ccccc1)[P+](c1ccccc1)(c1ccccc1)c1ccccc1`: the GI50 was 13.1 µM (inactive) in the experiment with OVCAR-8; 17.3 µM (inactive) in the experiment on HCT-116; 7.91 µM (inactive) with MOLT-4; 26.3 µM (inactive) in the experiment with A549; 12.1 µM (inactive) in the experiment on OVCAR-4; 22.8 µM (inactive) in the experiment with NCI-H460. In addition, the GI50 in the experiment on RXF 393 is 11.1 µM (inactive); in the experiment with OVCAR-5, 21.6 µM (inactive); with UACC-62 it was 14.6 µM (inactive); in the experiment with NCI-H226, 20.3 µM (inactive); in the experiment with HT-29 it was 13.6 µM (inactive); in the experiment on NCI-H522 it was 15 µM (inactive). Moreover, the GI50 with SF-268 is 24 µM (inactive); in the experiment on SK-MEL-28, 16.6 µM (inactive); in the experiment on SN12C, 22.7 µM (inactive); with EKVX, 19.9 µM (inactive); in the experiment with SK-MEL-5, 15.9 µM (inactive); with HOP-92, 11.1 µM (inactive).
Consider `C/C=C1\CN2CCc3c([nH]c4ccccc34)C2CC1CCO` (stereo not drawn), for which the GI50 in the experiment on OVCAR-8, with CCRF-CEM, in the experiment on HCT-116, in the experiment on MOLT-4, in the experiment on KM12 and with A549 was > 100 µM (inactive) throughout. Also, the GI50 with OVCAR-4, with NCI-H460, in the experiment with RXF 393, in the experiment on OVCAR-5, in the experiment with NCI-H226 and in the experiment on HT-29 was > 100 µM (inactive) throughout. Moreover, the GI50 with NCI-H522, in the experiment with SF-268, in the experiment with SK-MEL-28, with SN12C, in the experiment with EKVX and in the experiment on SK-MEL-5 was > 100 µM (inactive) throughout. Besides, the GI50 in the experiment on HOP-92 is 48 µM (inactive).
Turning to `COc1ccc(N2C(=O)C3c4[nH]c5ccccc5c4C4CC(C)CC(C)C4C3C2=O)cc1` (stereo not drawn), the GI50 with OVCAR-8, with CCRF-CEM, with HCT-116, in the experiment on MOLT-4, in the experiment on A549 and in the experiment on OVCAR-4 was > 100 µM (inactive) each time. The GI50 with RXF 393, with UACC-62, with NCI-H226, in the experiment with HT-29, in the experiment on NCI-H522 and in the experiment with SF-268 was > 100 µM (inactive) each time. The GI50 in the experiment on SK-MEL-28, in the experiment on SN12C, with EKVX, in the experiment with SK-MEL-5 and in the experiment on HOP-92 was > 100 µM (inactive) throughout.
Consider `CC1(C)OCC([C@H]2O[C@@H](CC(=S)NCCCCCCCCCCCCNC(=S)C[C@H]3O[C@@H](C4COC(C)(C)O4)[C@H]4OC(C)(C)O[C@H]43)[C@H]3OC(C)(C)O[C@H]32)O1` (stereo partly drawn), for which the GI50 in the experiment with OVCAR-8 was 53.5 µM (inactive); in the experiment with HCT-116, 35.7 µM (inactive); with MOLT-4, 15.8 µM (inactive); in the experiment with KM12, 48.6 µM (inactive); in the experiment with A549, 14.7 µM (inactive); with OVCAR-4, 43.3 µM (inactive). The GI50 in the experiment on NCI-H460 is 25.6 µM (inactive); in the experiment on RXF 393 it was > 100 µM (inactive); in the experiment on OVCAR-5, > 100 µM (inactive); in the experiment on NCI-H226, > 100 µM (inactive); with HT-29, 45.7 µM (inactive); in the experiment on NCI-H522, 45.3 µM (inactive). Further, the GI50 is > 100 µM (inactive) with SF-268; > 100 µM (inactive) in the experiment on SK-MEL-28; 49.9 µM (inactive) with EKVX; 23.7 µM (inactive) in the experiment with SK-MEL-5; > 100 µM (inactive) in the experiment on HOP-92.
`Cc1nc(C)c(N2CCN(CN)CC2)c(O)n1`: the GI50 with OVCAR-8, with CCRF-CEM, in the experiment with HCT-116, in the experiment on MOLT-4, in the experiment on KM12 and in the experiment with A549 was > 100 µM (inactive) in each case. Also, the GI50 in the experiment with OVCAR-4, with NCI-H460, in the experiment with RXF 393, in the experiment on UACC-62, with NCI-H226 and with HT-29 was > 100 µM (inactive) throughout. Also, the GI50 in the experiment on NCI-H522, with SF-268, in the experiment on SK-MEL-28, with SN12C, in the experiment on EKVX and with SK-MEL-5 was > 100 µM (inactive) each time. For the same compound, the GI50 in the experiment on HOP-92 is > 100 µM (inactive).
Consider `O=S1(=O)C[C@H](O)[C@H](O)CS1`, for which the GI50 in the experiment with OVCAR-8, with HCT-116, in the experiment on MOLT-4, in the experiment with KM12, in the experiment with A549 and with OVCAR-4 was > 100 µM (inactive) throughout. The GI50 with NCI-H460, with RXF 393, in the experiment with OVCAR-5, in the experiment with UACC-62, in the experiment on NCI-H226 and with HT-29 was > 100 µM (inactive) in each case. In addition, the GI50 in the experiment on NCI-H522, with SF-268, with SK-MEL-28, in the experiment on SN12C, in the experiment on EKVX and with SK-MEL-5 was > 100 µM (inactive) in each case. Also, in the experiment with HOP-92, the GI50 is > 100 µM (inactive).
Consider `O=C(c1ccccc1)c1c(C(=O)c2ccccc2)c(-c2ccccc2)c2c(-c3ccccc3)sc(-c3ccccc3)c2c1-c1ccccc1`, for which the GI50 with OVCAR-8, in the experiment with CCRF-CEM, in the experiment on HCT-116, with KM12, in the experiment with A549 and in the experiment on OVCAR-4 was > 100 µM (inactive) in each case. For the same compound, the GI50 in the experiment on NCI-H460, in the experiment with RXF 393, in the experiment with OVCAR-5, with UACC-62, with NCI-H226 and with HT-29 was > 100 µM (inactive) each time. The GI50 with NCI-H522, in the experiment on SF-268, in the experiment on SK-MEL-28, in the experiment on SN12C, with EKVX and with SK-MEL-5 was > 100 µM (inactive) throughout. The GI50 in the experiment on HOP-92 was > 100 µM (inactive).
For the compound `CSc1nc(Cl)c(Br)c(Nc2cnc(O)nc2O)n1`, the GI50 in the experiment on OVCAR-8 is 15.6 µM (inactive); in the experiment with CCRF-CEM, 17.7 µM (inactive); with HCT-116, 14.6 µM (inactive); in the experiment with MOLT-4, 13.4 µM (inactive); in the experiment with KM12, 22.8 µM (inactive); in the experiment with A549, 19.2 µM (inactive). The GI50 in the experiment on OVCAR-4 was 15.6 µM (inactive); in the experiment with RXF 393, 22.1 µM (inactive); in the experiment with UACC-62 it was 15.2 µM (inactive); with NCI-H226, 20.1 µM (inactive); in the experiment with HT-29, 15.8 µM (inactive); in the experiment with NCI-H522 it was 1.87 µM (inactive). Also, the GI50 with SK-MEL-28 was 29.5 µM (inactive); in the experiment on SN12C it was 18.2 µM (inactive); in the experiment on EKVX, 15.3 µM (inactive); in the experiment on SK-MEL-5, 19.6 µM (inactive); in the experiment with HOP-92 it was 13.1 µM (inactive).
With `CCN1/C(=C/C#C/C(C)=C\c2sc3ccc(Cl)cc3[n+]2CC)Sc2ccc(Cl)cc21`, the GI50 is 3.24 µM (inactive) with OVCAR-8; 0.389 µM (active) in the experiment with CCRF-CEM; 2.57 µM (inactive) in the experiment on HCT-116; 3.1 µM (inactive) with KM12; 3.57 µM (inactive) in the experiment on A549; 6.53 µM (inactive) in the experiment with OVCAR-4. Besides, the GI50 with NCI-H460 is 3.02 µM (inactive); in the experiment with RXF 393 it was 5.6 µM (inactive); in the experiment on OVCAR-5, 7.94 µM (inactive); in the experiment on UACC-62 it was 3.32 µM (inactive); with NCI-H226, 3.82 µM (inactive); in the experiment with HT-29, 3.08 µM (inactive). In addition, the GI50 with NCI-H522 is 1.56 µM (inactive); in the experiment with SF-268, 5.22 µM (inactive); in the experiment on SK-MEL-28, 9.77 µM (inactive); with SN12C it was 3.57 µM (inactive); in the experiment on EKVX, 4.25 µM (inactive); with SK-MEL-5, 2.09 µM (inactive). For the same compound, in the experiment with HOP-92, the GI50 is 1.58 µM (inactive).
Take `CC(C)(C)[C@H]1CO[C@]2(C)[C@@H]3C[C@@H]3C(=O)N12`: the GI50 in the experiment on OVCAR-8, in the experiment with CCRF-CEM, in the experiment with HCT-116, in the experiment with KM12, with A549 and in the experiment with OVCAR-4 was > 100 µM (inactive) each time. Also, the GI50 in the experiment with NCI-H460, in the experiment on RXF 393, with OVCAR-5, in the experiment with UACC-62, in the experiment on NCI-H226 and in the experiment on HT-29 was > 100 µM (inactive) each time. Further, the GI50 with NCI-H522, in the experiment with SF-268, in the experiment with SK-MEL-28, in the experiment with SN12C, in the experiment on EKVX and with SK-MEL-5 was > 100 µM (inactive) in each case. In the experiment with HOP-92, the GI50 is > 100 µM (inactive).
